This is an account of results in patent US20100179143A1, “NAPHTHYRIDINE, DERIVATIVES AS P13 KINASE INHIBITORS” (Smithkline Beecham Corporation, priority 2007, published 2010).

The target in one experiment is T1, PI3Kα (Homo sapiens, UniProt P42336).
T1 construct: His
The experiment in a line: PI3K alpha Leadseeker SPA Assay. In kind it is biochemical. The note with it: in at least one experimental run; read-out: IC50 against PI3Kα. Here is the method:
PI3K alpha Leadseeker SPA Assay
Compounds of the present invention were tested according to the following assays and found as inhibitors of PI3 kinases, particularly PI3Kα. The exemplified compounds were tested and found active against PI3Kα. The IC50's ranged from about 1 nM to 10 μM.
SPA imaging beads are microspheres containing scintillant which emit light in the red region of the visible spectrum. As a result, these beads are ideally suited to use with a CCD imager such as the Viewlux. The Leadseeker beads used in this system are polystyrene beads that have been coupled with polyethyleneimine. When added to the assay mixture, the beads absorb both the substrate (PIP2) and product (PIP3). Adsorbed P^33-PIP3 will cause an increase in signal, measured as ADUs (analog to digital units). This protocol details the use of the PEI-PS Leadseeker beads for assays using His-p110/p85 PI3K alpha.
Solid compounds are typically plated with 0.1 μl of 100% DMSO in all wells (except column 6 and 18) of a 384-well, flat bottom, low volume plate (Greiner 784075). The compounds are serially diluted (3-fold in 100% DMSO) across the plate from column 1 to column 12 and column 13 to column 24 and leave column 6 and 18 containing only DMSO to yield 11 concentrations for each test compound.
The assay buffer contains MOPS (pH 6.5), CHAPS, and DTT. PI3K alpha and PIP2 (L-alpha-D-myo-Phosphatidylinositol 4,5-bisphosphate [P1(4,5)P2]3-O-phospho linked, D(+)-sn-1,2-di-O-octanoylglyceryl, CellSignals #901) are mixed and incubated in the plate with compound for 30 min prior to starting the reaction with the addition of P^33-ATP and MgCl2 (reagents added using Zoom). Enzyme-free wells (column 18) are typically done to determine the low control. PEI-PS Leadseeker beads in PBS/EDTA/CHAPS are added (by Multidrop) to quench the reaction, and the plates are allowed to incubate for at least one hour (typically overnight) before centrifugation. The signal is determined using a Viewlux detector and is then imported into curve fitting software (Activity Base) for construction of concentration response curves. The percent inhibition of activity was calculated relative to high controls (C1, 0.1 μl DMSO in column 6, rows A-P)) and low controls (C2, 5 μl of 40 uM PIP2 in buffer in column 18, rows A-P) using, 100*(1−(U1−C2)/(C1-C2)). The concentration of test compound yielding 50% inhibition was determined using the equation, y=((Vmax*x)/(K+x))+Y2, where “K” was equal to the IC50. The IC50 values were converted to pIC50 values, i.e., −log IC50 in Molar concentration.

For another experiment, the system named is Class I PI3-kinases. The note with it: cited from earlier work.
In a further experiment the target is CK2 protein kinase. The following applies: read-out: inhibition of CK2 protein kinase; cited from earlier work.
The subject of experiment [1] is neutrophils. The following applies: cited from earlier work.
Experiment [2] relates to neutrophils. The following applies: treatment of neutrophils; Thelen et al. 1994; cited from earlier work.

pIC50: −log10 of the molar value. Like-named read-outs stand apart in the source and are kept apart here.

T1 sequence (P42336 whole entry): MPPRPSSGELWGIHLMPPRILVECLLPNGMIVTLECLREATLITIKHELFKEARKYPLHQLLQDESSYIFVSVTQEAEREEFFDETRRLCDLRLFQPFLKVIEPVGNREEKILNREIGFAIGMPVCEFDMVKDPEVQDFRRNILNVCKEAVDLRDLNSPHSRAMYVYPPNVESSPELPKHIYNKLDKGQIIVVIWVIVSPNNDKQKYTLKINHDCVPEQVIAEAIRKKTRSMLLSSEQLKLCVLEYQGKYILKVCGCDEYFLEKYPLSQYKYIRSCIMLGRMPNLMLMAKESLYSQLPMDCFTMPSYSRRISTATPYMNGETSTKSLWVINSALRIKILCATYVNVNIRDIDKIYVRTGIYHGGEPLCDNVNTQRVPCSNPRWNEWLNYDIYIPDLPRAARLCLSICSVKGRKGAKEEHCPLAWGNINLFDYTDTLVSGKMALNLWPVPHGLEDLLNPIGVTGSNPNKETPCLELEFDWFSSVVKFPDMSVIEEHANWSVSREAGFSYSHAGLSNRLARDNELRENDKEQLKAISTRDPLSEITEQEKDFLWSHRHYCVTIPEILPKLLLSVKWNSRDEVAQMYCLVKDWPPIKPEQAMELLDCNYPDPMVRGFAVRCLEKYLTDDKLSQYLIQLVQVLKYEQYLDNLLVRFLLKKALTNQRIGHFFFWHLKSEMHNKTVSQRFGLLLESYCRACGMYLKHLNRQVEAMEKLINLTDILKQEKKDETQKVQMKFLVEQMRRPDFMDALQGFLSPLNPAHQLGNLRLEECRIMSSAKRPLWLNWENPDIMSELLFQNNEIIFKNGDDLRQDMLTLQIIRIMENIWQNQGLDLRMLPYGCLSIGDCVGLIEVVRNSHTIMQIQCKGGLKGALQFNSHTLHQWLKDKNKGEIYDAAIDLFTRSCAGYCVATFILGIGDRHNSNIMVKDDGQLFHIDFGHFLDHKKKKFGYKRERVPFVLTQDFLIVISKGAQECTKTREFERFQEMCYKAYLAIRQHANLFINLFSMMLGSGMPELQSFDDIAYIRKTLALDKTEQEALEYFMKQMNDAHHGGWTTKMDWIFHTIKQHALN
T1 sequence (P27986 whole entry partner): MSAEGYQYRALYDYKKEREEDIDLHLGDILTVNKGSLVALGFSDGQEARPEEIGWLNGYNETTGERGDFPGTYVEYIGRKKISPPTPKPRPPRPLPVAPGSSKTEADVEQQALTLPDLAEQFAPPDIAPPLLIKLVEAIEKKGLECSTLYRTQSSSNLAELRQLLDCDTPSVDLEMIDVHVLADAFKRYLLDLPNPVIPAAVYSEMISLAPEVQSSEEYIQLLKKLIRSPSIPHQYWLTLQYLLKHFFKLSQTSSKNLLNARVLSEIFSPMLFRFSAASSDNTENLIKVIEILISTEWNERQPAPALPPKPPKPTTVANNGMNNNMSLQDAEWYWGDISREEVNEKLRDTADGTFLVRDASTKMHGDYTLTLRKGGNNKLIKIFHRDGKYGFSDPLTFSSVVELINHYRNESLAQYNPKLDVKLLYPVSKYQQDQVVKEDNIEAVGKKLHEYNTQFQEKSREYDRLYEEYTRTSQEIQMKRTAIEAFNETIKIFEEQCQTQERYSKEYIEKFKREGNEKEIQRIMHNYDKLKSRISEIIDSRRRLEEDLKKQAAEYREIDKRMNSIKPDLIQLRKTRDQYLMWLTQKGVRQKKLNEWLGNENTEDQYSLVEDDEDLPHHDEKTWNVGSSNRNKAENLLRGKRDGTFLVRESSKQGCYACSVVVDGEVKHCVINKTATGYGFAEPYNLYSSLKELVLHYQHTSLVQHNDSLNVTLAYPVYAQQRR

In the case of `OCc1ccc(-c2ccc3nccc(-c4ccncc4)c3n2)o1` [Example 1, {5-[8-(4-pyridinyl)-1,5-naphthyridin-2-yl]-2-furanyl}methanol], the pIC50 at PI3Kα is 7.40.
`CN(C)S(=O)(=O)c1cc(-c2ccc3nccc(-c4ccncc4)c3n2)cnc1N` [Example 2, 2-amino-N,N-dimethyl-5-[8-(4-pyridinyl)-1,5-naphthyridin-2-yl]-3-pyridinesulfonamide]: the pIC50 on PI3Kα was 8.52.
Same read-out and setting: under `c1ccc(-c2n[nH]cc2-c2ccc3nccc(-c4ccncc4)c3n2)cc1` [Example 5, 2-(3-phenyl-1H-pyrazol-4-yl)-8-(4-pyridinyl)-1,5-naphthyridine] stands 7.51.
Same read-out and setting: the figure for `NS(=O)(=O)c1cncc(-c2ccc3nccc(-c4cccc(OC(F)(F)F)c4)c3n2)c1` [Example 9, 5-(8-{3-[(trifluoromethyl)oxy]phenyl}-1,5-naphthyridin-2-yl)-3-pyridinesulfonamide] is 7.57.
Consider `CS(=O)(=O)Nc1ccc(-c2ccnc3ccc(-c4cncc(S(N)(=O)=O)c4)nc23)cc1` [Example 11, 5-(8-{4-[(methylsulfonyl)amino]phenyl}-1,5-naphthyridin-2-yl)-3-pyridinesulfonamide], for which, on PI3Kα, the pIC50 is 8.22.
On the same count and under the same terms, under `CN1CCN(c2ccnc3ccc(-c4cncc(S(=O)(=O)Nc5ccc(F)cc5F)c4)nc23)CC1` [Example 32, N-(2,4-difluorophenyl)-5-[8-(4-methyl-1-piperazinyl)-1,5-naphthyridin-2-yl]-3-pyridinesulfonamide] stands 7.30.
Regarding `O=c1cc(N2CCOCC2)oc2c(-c3ccccc3)cccc12` [LY294002], the pIC50 in the experiment on Class I PI3-kinases (Fruman et al. 1998, read-out: IC50 against each of these PI3-kinases) was 4.70 to 4.82; on CK2 protein kinase, 5.00 to 5.30. In the experiment with neutrophils [1], the neutrophil migration entry is reported as “block”. For the same molecule, in the experiment with neutrophils [1], the superoxide release result is listed as “block”.
Regarding `COC[C@H]1OC(=O)c2coc3c2[C@@]1(C)C1=C(C3=O)[C@@H]2CCC(=O)[C@@]2(C)C[C@H]1OC(C)=O` [wortmannin], the “fMLP-induced respiratory burst response” value in the experiment with neutrophils [2] is reported as “prevents the fMLP-induced respiratory burst response”. Further, the pIC50 with Class I PI3-kinases (wortmannin, read-out: IC50 against each of the various Class I PI3-kinases) is 8.00 to 9.00. Moreover, in the experiment with neutrophils [1], the neutrophil migration result is on record as “block” and the superoxide release result is on record as “block”.
